Measurements: patent US4385062A, “1-[(-2-Mercaptocycloalkyl)carbonyl]-L-proline derivatives, the process for their manufacture, the intermediates for their synthesis and their use as anti-hypertensive agents” (Gruppo Lepetit S.p.A., priority 1980, dated 1983)

Legend:
[1] = target: T1, angiotensin converting enzyme (Rattus norvegicus, UniProt P47820); experiment: in vitro radioimmunoassay of angiotensin-II generation in rat plasma (converting enzyme inhibition); assay type: biochemical; conditions: 37° C., 30 minutes, angiotensin-II antibody trapping, read-out: IC50 (concentration at which a 50% inhibition of formation of angiotensin-II with respect to the control occurs) (converted)
T1 construct: rat plasma containing angiotensinogen, renin and converting enzyme in physiological amounts; from tissue; host or cells: rat plasma
T1 sequence (P47820 36-1238 limits assumed): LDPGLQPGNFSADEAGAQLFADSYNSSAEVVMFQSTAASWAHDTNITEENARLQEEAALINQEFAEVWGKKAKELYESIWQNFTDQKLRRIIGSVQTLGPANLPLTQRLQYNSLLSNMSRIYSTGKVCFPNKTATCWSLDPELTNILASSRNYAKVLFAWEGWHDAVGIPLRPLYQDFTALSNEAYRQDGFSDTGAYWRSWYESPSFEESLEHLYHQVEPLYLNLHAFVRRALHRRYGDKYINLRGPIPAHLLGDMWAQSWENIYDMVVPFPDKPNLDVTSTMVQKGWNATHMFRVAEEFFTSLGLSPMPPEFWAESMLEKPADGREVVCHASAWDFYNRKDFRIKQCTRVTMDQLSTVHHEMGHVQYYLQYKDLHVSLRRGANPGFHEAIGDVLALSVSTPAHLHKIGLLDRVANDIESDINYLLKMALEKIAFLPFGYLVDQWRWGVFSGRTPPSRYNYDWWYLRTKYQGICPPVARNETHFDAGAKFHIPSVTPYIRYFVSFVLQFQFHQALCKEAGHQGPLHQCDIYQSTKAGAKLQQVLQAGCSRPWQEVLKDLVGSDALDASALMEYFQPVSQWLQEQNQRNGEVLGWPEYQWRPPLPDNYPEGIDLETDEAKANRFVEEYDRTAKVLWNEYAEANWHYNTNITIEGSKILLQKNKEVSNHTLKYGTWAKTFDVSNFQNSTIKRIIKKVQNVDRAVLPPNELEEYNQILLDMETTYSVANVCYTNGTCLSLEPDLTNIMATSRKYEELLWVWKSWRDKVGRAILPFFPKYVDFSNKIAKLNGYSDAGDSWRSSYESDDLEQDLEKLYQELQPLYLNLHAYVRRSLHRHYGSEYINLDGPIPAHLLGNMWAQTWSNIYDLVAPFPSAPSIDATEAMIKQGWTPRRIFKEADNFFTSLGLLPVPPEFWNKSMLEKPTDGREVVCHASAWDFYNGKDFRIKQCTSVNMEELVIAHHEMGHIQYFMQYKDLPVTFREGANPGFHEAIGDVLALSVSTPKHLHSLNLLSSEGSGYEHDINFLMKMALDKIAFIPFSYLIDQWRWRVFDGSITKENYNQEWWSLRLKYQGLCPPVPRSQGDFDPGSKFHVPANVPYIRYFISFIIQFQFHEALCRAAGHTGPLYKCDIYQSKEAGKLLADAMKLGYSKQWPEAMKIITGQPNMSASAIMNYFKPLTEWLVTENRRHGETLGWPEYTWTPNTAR
Method: The in vitro activity was determined by a radioimmuno-assay carried out using the methodology illustrated by K. Poulsen in J. Lab. […] More particularly, the in vitro activity was quantitatively evaluated by following the procedure described below:
50 μl of rat plasma containing angiotensinogen, renin and converting enzyme in physiological amounts, but deprived of endogenous angiotensin-I and angiotensin-II, and 10 μl of angiotensin-II antibody in dilution (1:120) were incubated in a tube at 37° C. for 30 minutes.
During this enzymatic incubation in the absence of converting enzyme inhibitors, angiotensin-II which forms is then transformed into angiotensin-II by the action of converting enzyme and the angiotensin-II antibody which is present in the incubate, then captures and traps it, thus preserving angiotensin-II from the degrading action of plasmatic angiotensinases. Incubation was terminated by placing the tube at 0° C. and the amount of angiotensin-II formed and captured by the antibody was measured by radioimmunoassay (see K. Poulsen and J. Jorgensen J. Clin. Endocrinol. Metab. 39, 816-825 (1974). […]
As said above, the amount of captured angiotensin-II, was determined by a radioimmunological assay. […] After centrifugation at 3000×g for 30 minutes the supernatant which contains the antibody-bound angiotensin-II, was decanted in counting tubes and each sample was then counted.
For calculation of generated angiotensin-II from the amount of antibody-bound labeled angiotensin-II, an angiotensin-II standard curve was constructed using 50 μg of standard angiotensin-II (containing zero to 7.5 pg of angiotensin-II) and 10 μl of angiotensin-II antibody in dilution (1:120). […] By plotting the amounts of antibody-bound labeled angiotensin-II versus the known amounts of angiotensin-II initially present, a standard curve can be constructed, which allow a direct correlation between the amount of antibody-bound labeled angiotensin-II determined in each test and the amount of generated angiotensin-II.

[2] = target: T2, angiotensin converting enzyme (Rattus norvegicus, UniProt P47820); experiment: inhibition of the pressure increase induced by angiotensin-I in anesthetized normotensive rats; assay type: in vivo; conditions: normotensive rats anesthetized with nembuthal, angiotensin-I 0.1 μg/Kg, generally 15 minutes after test compound
T2 construct: confirmed also in vivo by means of an experiment performed on normotensive rats; from tissue; host or cells: anesthetized normotensive rats (whole animal)
T2 sequence (P47820 36-1313): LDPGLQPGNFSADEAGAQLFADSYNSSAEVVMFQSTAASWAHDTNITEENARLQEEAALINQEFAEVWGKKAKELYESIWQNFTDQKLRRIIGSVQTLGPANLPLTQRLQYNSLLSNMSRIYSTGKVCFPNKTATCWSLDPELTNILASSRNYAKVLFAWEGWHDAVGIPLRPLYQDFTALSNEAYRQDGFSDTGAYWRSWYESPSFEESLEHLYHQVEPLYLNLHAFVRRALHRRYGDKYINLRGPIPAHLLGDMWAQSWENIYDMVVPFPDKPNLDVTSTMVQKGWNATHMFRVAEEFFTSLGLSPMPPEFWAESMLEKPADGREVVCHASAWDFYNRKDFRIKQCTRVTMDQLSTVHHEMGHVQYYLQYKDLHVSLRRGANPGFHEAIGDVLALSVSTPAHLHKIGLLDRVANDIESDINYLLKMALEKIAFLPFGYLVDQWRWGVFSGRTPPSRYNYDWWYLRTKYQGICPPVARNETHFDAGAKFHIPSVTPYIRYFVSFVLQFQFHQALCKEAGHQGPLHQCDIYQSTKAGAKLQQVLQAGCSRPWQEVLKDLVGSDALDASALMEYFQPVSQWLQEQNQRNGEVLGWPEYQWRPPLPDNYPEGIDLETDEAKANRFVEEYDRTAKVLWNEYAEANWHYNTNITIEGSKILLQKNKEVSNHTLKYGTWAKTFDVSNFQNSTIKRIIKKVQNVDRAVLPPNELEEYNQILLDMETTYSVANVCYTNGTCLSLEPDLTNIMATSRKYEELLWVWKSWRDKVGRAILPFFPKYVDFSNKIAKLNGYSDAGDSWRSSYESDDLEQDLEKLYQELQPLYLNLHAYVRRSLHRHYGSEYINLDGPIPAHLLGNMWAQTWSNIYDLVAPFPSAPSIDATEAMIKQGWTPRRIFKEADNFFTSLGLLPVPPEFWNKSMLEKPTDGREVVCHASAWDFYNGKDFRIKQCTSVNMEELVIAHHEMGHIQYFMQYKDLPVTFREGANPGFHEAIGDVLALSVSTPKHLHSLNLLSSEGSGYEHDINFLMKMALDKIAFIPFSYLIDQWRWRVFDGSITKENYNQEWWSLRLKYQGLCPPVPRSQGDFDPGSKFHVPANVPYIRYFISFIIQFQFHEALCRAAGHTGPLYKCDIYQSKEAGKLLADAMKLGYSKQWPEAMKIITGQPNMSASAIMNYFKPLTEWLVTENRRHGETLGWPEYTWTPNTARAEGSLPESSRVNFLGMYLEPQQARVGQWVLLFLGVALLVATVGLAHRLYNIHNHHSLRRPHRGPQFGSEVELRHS
Method: The experiment was carried out simultaneously with the above one and under the same conditions.
The basal pressure value for each rat was recorded, then doses of 0.1 μg/Kg of body weight of angiotensin-I were injected through the jugular catheter. […] From these values and the basal ones the pressure increase induced by angiotensin-I in each rat was calculated.
The percentages of inhibition of the pressure increase induced by angiotensin-I by different doses of test compounds were easily calculated and for each dose a single value, averaged on the three animals of the group was considered. By plotting the concentrations of test compound on a logarithmic scale versus the percent inhibitory effects, a linear correlation was established which allowed the calculation of the ED50, i.e. the dose of test compound which inhibits by 50% the pressure increase induced by angiotensin-I.

Row | SMILES | IC50 [1] [nM] | ED50 ([2]; rat, iv, 0.25 h, read-out: ED50 (dose which inhibits by 50% the pressure increase induced by angiotensin-I)) [mg/kg] | ED50 (dose which inhibits by 50% the pressure increase induced by angiotensin-I) ([2]; intravenous, 15 min) [mg/kg]
1 | O=C(SC1CCCC1C(=O)N1CCC[C@H]1C(=O)O)c1ccccc1 (single isomer, unassigned) [Example 5B, 1-[(2-benzoylthiocyclopentyl)carbonyl]-L-proline] | 662 |  | 
2 | O=C(O)[C@@H]1CCCN1C(=O)C1CCCC1S (single isomer, unassigned) [Example 6A, 1-[(2-mercaptocyclopentyl)carbonyl]-L-proline] | 863 |  | 
3 | O=C(O)[C@@H]1CCCN1C(=O)C1CCCC1S (stereo partly drawn) [Example 2, 1-[(2-mercaptocyclopentyl)carbonyl]-L-proline] | 2340 | 2.3 | 
4 | O=C(O)[C@@H]1CCCN1C(=O)C1CCCC1S (stereo partly drawn) [Example 6B, 1-[(2-mercaptocyclopentyl)carbonyl]-L-proline] |  |  | 1.8
